Source: patent publication US20250368611A1, “METHOD FOR PREPARING BERAPROST 314-D SODIUM” (YS Life Science Co., Ltd., priority 2024, published 2025)
Entries after “also recorded” stand apart in the source; their conditions may differ.

Tests used:
TNF-α = experiment: CD19 CAR T-cell / Raji co-culture: TNF-α in supernatant by multiplex Luminex; type: cell-based, human
Description: (§1) The impact of CTO1681 on the efficacy of CD19-targeting CAR T-cells in vitro as well as its ability to reduce CRS-inducing pro-inflammatory cytokine levels in the presence of CAR T-cells and tumor cells in vitro were explored. […] CD3 T cells were sorted from one healthy donor PBMCs, stimulated for a short period of time and transduced with CD19 CAR-T lentivirus (LV) containing CD28 and CD3ζ domains. CD19 CAR T-cells were expanded for 6 days and used in the assay. CD19-targeting CD3 T-cells were treated with 5 increasing concentrations of CTO1681 (0.36 nM, 1.8 nM, 9 nM, 45 nM, and 225 nM) or vehicle for 30 minutes, prior to, and during co-culture with CD19+ Raji lymphoma target cells. Media alone, vehicle, and positive control (dexamethasone) wells were included. Following initial treatment, CAR T-cells (Effectors) were co-cultured with fluorescently labeled CD19+ Raji tumor cells (Target cells) at 3 different Effector:Target cell ratios (10:1, 5:1 and 1:1) and treated with 5 different concentrations of CTO1681 or vehicle for 24 hours. Target cells (Raji cells) were fluorescently labelled with CPD (eBioscience™ Cell Proliferation Dye eFluor™) prior to co-culture to distinguish the Raji cells from the effector cells and allow for analysis of target viability by flow cytometry. Following incubation, supernatant was collected and levels of pro-inflammatory cytokines IL-6 and TNF-α were measured by multiplex Luminex assay and […] was measured via time-resolved fluorescence resonance energy transfer (TR-FRET) assay. These cytokines were selected for quantification as they are early cytokines released following CAR T-cell infusion in vivo that causes hyperactivation of the immune system resulting in acute systemic inflammation, CRS, multiorgan failure, and possible death. In addition, flow cytometry was used to measure the level of Raji tumor/target cell death following CAR T treatment across CTO1681 conditions to measure impact of CTO1681 with CAR T-cell efficacy. Co-cultures were stained with viability dye 7-AAD for measuring viability.

IL-6 = experiment: CD19 CAR T-cell / Raji co-culture: IL-6 in supernatant by multiplex Luminex; type: cell-based, human
Description: as §1

[1] = test system: CD19+ Raji lymphoma target cells; experiment: CD19 CAR T-cell killing of Raji target cells, flow cytometry (7-AAD); type: cell-based, human; conditions: all concentrations 0.36-225 nM; 24 hours co-culture
Description: The impact of CTO1681 on the efficacy of CD19-targeting CAR T-cells in vitro as well as its ability to reduce CRS-inducing pro-inflammatory cytokine levels in the presence of CAR T-cells and tumor cells in vitro were explored. […] CD3 T cells were sorted from one healthy donor PBMCs, stimulated for a short period of time and transduced with CD19 CAR-T lentivirus (LV) containing CD28 and CD3ζ domains. CD19 CAR T-cells were expanded for 6 days and used in the assay. CD19-targeting CD3 T-cells were treated with 5 increasing concentrations of CTO1681 (0.36 nM, 1.8 nM, 9 nM, 45 nM, and 225 nM) or vehicle for 30 minutes, prior to, and during co-culture with CD19+ Raji lymphoma target cells. Media alone, vehicle, and positive control (dexamethasone) wells were included. […] Following incubation, supernatant was collected and levels of pro-inflammatory cytokines IL-6 and TNF-α were measured by multiplex Luminex assay and […] was measured via time-resolved fluorescence resonance energy transfer (TR-FRET) assay. These cytokines were selected for quantification as they are early cytokines released following CAR T-cell infusion in vivo that causes hyperactivation of the immune system resulting in acute systemic inflammation, CRS, multiorgan failure, and possible death. […]

IFN-γ = experiment: CD19 CAR T-cell / Raji co-culture: IFN-γ in supernatant by TR-FRET; type: cell-based, human
Description: as §1

Raji-luc tumor cells = experiment: CAR T-cell efficacy in NSG mice bearing Raji-luc tumors (IVIS imaging); type: in vivo; conditions: 0.3, 0.2 or 0.15 mg/kg/d BID for 14 days; Day 15
Description: The effects if any, of CTO1681 on CAR T-cell activity in vivo were measured. Human T-cells expressing CD19-CD28-CD3Z CAR construct was used in this experiment. 6-7 week old NSG™ (NOD SCID gamma) mice were engrafted with 1×10^6 luciferase (luc) expressing Raji tumor cells (herein referred to as “Raji-luc” tumor cells) each on Day 1 to allow for tumor growth over a 7-day period prior to the commencement of the treatment. CAR T-cell infusion was performed intravenously via lateral tail vein on (5×10^6 CD19 CAR T-cells generated from healthy donors). NSG mice are severely immunodeficient, which facilitates ready tumor engraftment and subsequent clearance due to CAR T-cells can be measured. Tumor growth after engraftment and subsequent clearance were monitored once weekly (starting on Day 7) using IVIS imaging to detect luciferase signal in living mice. CTO1681 administration began on Day 8, two days before CAR T-cell infusion, with injections twice a day for 14 days. Mice received total daily CTO1681 doses of 0.3 mg/kg/d, 0.2 mg/kg/d, or 0.15 mg/kg/d via two injections (BID). CTO1681 doses were selected based on the pharmacokinetic profile of the drug in mice. […] Mice were monitored for body temperature and health evaluations (weight, movement, posture, fur condition, etc.) throughout the entire study.

[2] = Health evaluations in NSG tumor-bearing mice; type: in vivo; conditions: 0.3, 0.2 or 0.15 mg/kg/d BID for 14 days with CAR T-cells
Description: Tumor growth after engraftment and subsequent clearance were monitored once weekly (starting on Day 7) using IVIS imaging to detect luciferase signal in living mice. CTO1681 administration began on Day 8, two days before CAR T-cell infusion, with injections twice a day for 14 days. Mice received total daily CTO1681 doses of 0.3 mg/kg/d, 0.2 mg/kg/d, or 0.15 mg/kg/d via two injections (BID). CTO1681 doses were selected based on the pharmacokinetic profile of the drug in mice. Control groups included mice receiving Raji-luc tumor cells without CAR T-cell treatment, mice receiving Raji-luc tumor cells and a CAR T-cell infusion, and mice receiving Raji-luc tumor cells with vehicle treatments. Mice were monitored for body temperature and health evaluations (weight, movement, posture, fur condition, etc.) throughout the entire study.

[3] = 10:1 ratio of Effectors to Target cells, 0.36-225 nM, 24 hours
[4] = CAR T-cells:Raji cells 10:1, 0.36-225 nM
[5] = across three ratios of CAR-T cells to Raji cells (10:1, 5:1, 1:1)

## CC#CC[C@H](C)[C@H](O)/C=C/[C@@H]1[C@H]2c3cccc(CCCC(=O)[O-])c3O[C@H]2C[C@H]1O.[Na+] [CTO1681, sodium 4-((1R,2R,3aS,8bS)-2-hydroxy-1-((3S,4S,E)-3-hydroxy-4-methyloct-1-en-6-yn-1-yl)-2,3,3a,8b-tetrahydro-1H-cyclopenta[b]benzofuran-5-yl)butanoate]
TNF-α; [3]
  Maximum reduction TNF-α: approximately 50%
TNF-α; [4]
  Effect on TNF-α levels: dose-dependently reduced; also recorded: dose-dependently lowers
TNF-α; [5]
  TNF-α with increasing concentrations: reduction
IL-6; [3]
  Maximum reduction IL-6: ~23%
IL-6; [4]
  Effect on IL-6 levels: dose-dependently reduced; also recorded: dose-dependently lowers
IL-6; [5]
  IL-6 with increasing concentrations: reduction
[1]
  Effect on tumor/target cell killing by CD19-directed CAR T-cells: did not impact or interfere; also recorded: absence of an effect
IFN-γ; [3]
  IFN-γ: ~26%
IFN-γ; [4]
  Effect on IFN-γ levels: dose-dependently reduced; also recorded: dose-dependently lowers
IFN-γ; [5]
  IFN-γ: reduction
Raji-luc tumor cells
  Effect on CD19 CAR T-cell activity (reduction of tumor burden, luciferase signal): did not affect; also recorded: does not interfere
[2]
  Clinical morbidities, including weight loss or limb movement: did not cause any increase
